According to US7879795B2, “Enhancement of tigecycline potency using efflux pump inhibitors” (Mpex Pharmaceuticals, Inc., priority 2004, dated 2011):
In brackets after ≈: the same amount, converted by molar mass.

Experiments:
[1] = In vitro stability in rat serum and tissue homogenates (LC/MS/MS); format: in vitro ADME
Experimental: To test the stability of the compounds in vitro, samples were prepared and analyzed by LC/MS/MS according to the following procedure.
Homogenization: A chunk of fresh tissue was weighed and mixed with saline at 1:1 ratio (w/v) in a 12×75 mm polypropylene round bottom tube. The mixture was homogenized with a Polytron homogenizer (on ice, 3×10 seconds with 10 second intervals at the setting of 7).
Incubation and TCA-precipitation: An appropriate amount of a tissue homogenate was pre-warmed at 37° C. for 2 minutes in an Eppendorf tube. The compound to be tested was added to the tube to a final concentration of 2 μg/ml, mixed, and a 60 μl aliquot was immediately taken (as 0 hour sample) and mixed with 120 μl of 4% TCA (trichloroacetic acid) in an Eppendorf tube. The temperature of the tube containing the rest of the tissue sample was returned to 37° C. for incubation. Later, samples were taken as scheduled and mixed with TCA as described above. Plasma and lavage samples were directly incubated with the compounds without addition of saline and homogenization.
LC/MS/MS sample vial preparation: TCA-precipitated sample tubes were vortexed for 30 seconds, centrifuged in a microfuge at top speed (13.2 k rpm) for 5 minutes. The supernatant was collected. The pH was neutralized to about 3.5 with ammonium acetate buffer. The sample (45 μl) was transferred to a glass LC/MS/MS vial (Kimble, 11 mm, 1.5 ml) and 5 μl of an internal standard was added to a final concentration of 500 ng/ml. LC/MS/MS analysis was performed in Chemistry Department of San Diego State University.
LC/MS/MS protocol: Thermo-Finnigan TSQ Quantum triple sector mass spectrometer with electrospray (ESI) ionization was used to analyze the samples. The operation conditions were: Mobile phase of pH 3.00 water/formic acid: acetonitrile-methanol (45%:5%:50% by volume); Thermo-Keystone Betabasic C-18 column (2.1 mm×50 mm) operated at 0.100 mL/min.
Many proteases responsible for degrading EPI compounds are located in […]. Lysozymes typically have an acidic pH (about 4.8-5), whereas the pH in tissue homogenates that were prepared was higher (kidney, pH 6.8; liver, pH 6.6; and lung, pH 7.5). To test the effect of tissue homogenates closer to physiological conditions, the pH was lowered to about 6 by adding acetic acid to the tissue homogenates and compound stability was tested. FIG. 2 depicts the stability of compounds 1 and 3 at different pH. […] The pH-dependent degradation of compound 3 was especially evident in kidney homogenates.
FIG. 4 is a bar graph depicting the stability of compound 3 in the supernatant and pellet of kidney tissue homogenates.

[2] = system: P. aeruginosa, PAM1723, overexpressing the MexAB-OprM efflux pump; assay: Levofloxacin potentiation checkerboard assay (broth microdilution); format: cell-based
Experimental: Stock solution was stored at −80° C.
The checkerboard assay was performed in microtiter plates. […] EPIs were diluted in the y axis, each row containing an equal concentration of an EPI. The result of these manipulations was that each well of the microtiter plate contains a unique combination of concentrations of the two agents. The assay was performed in MHB with a final bacterial inoculum of 5×10^5 CFU/ml (from an early-log phase culture). Microtiter plates were incubated during 20 h at 35° C. and were read using a microtiterplate reader (Molecular Devices) at 650 nm as well as visual observation using a microtiter plate-reading mirror.

[3] = Rat serum pharmacokinetics after IV bolus administration; format: in vivo; settings: in words
Experimental: Rat serum pharmacokinetics of compounds 1, 2, 3 and 4 was evaluated after IV bolus administration (FIG. 11). FIG. 11 depicts the serum concentrations as a function of time.

[4] = Tissue levels in rat six-hour after 8.4 mg/kg IV bolus; format: in vivo; settings: rat kidney, liver and lung; 8.4 mg/kg IV bolus; in words
Experimental: Tissue levels of compounds 1, 2, 3 and 4 were evaluated in kidney, liver and lung six-hour after 8.4 mg/kg IV bolus administration. FIG. 13 depicts the levels as a function of time.
Compound 67, which is the expected metabolite of proteolytic intracellular degradation of compound 3, was detected in rat tissues after IV infusion, confirming the tissue-specific degradation of compound 3 (Tables 9A, B).

Klebsiella pneumonia = settings: cited from earlier work
[5] = system: PAM 1032, nalB, MexAB-OprM over-expressed; assay: microbe, parasite or virus in culture; format: cell-based, P. aeruginosa
Experimental: (§1) The ability of compound 21 to increase susceptibility to tigecycline was also assessed. The tigecycline potentiating activity of compound 21 was assessed by the checkerboard assay (Antimicrobial Combinations, Antibiotics in Laboratory Medicine, ed. Victor Lorian, M.D., Fourth edition, 1996, pp 333-338, which is incorporated herein by reference in its entirety) using a broth micro-dilution method performed as recommended by the CSLI (Clinical and Laboratory Standards Institute, formerly NCCLS) guidelines (National Committee for Clinical Laboratory Standards 2003. Methods for Dilution Antimicrobial Susceptibility Tests for Bacteria That Grow Aerobically—Sixth Edition; Approved Standard. NCCLS Document M7-A6, Vol 20 No. 2). In this assay, multiple dilutions of the two drugs, compound 21 and tigecycline, were tested alone and in combination, at concentrations equal to, above and below their respective minimal inhibitory concentrations (MICs). […] The stock solution was further diluted in Mueller Hinton Broth (MHB). Stock solutions were stored at −80° C.
(§2) The checkerboard assay was performed in microtiter plates. Tigecycline was diluted in the x axis, each column containing a single concentration of tigecycline. Compound 21 was diluted in the y axis, each row containing an equal concentration of the EPI. […] The assay was performed in MHB with a final bacterial inoculum of 5×10^5 CFU/ml (from an early-log phase culture). The microtiter plates were incubated for 20 hours at 35° C. and then read using a microtiter plate reader (Molecular Devices) at 650 nm, as well as by visual observation using a microtiter plate-reading mirror.
(§3) P. aeruginosa strain PAM 1032 was grown in Mueller-Hinton Broth (MHB) at 35° C. under constant aeration. After 20 hours, the inoculum was sub-cultured into fresh MHB and allowed to regrow at 35° C., under constant aeration, for 4 hours. The inoculum was adjusted to ca. 4×10^7 CFU/ml by correlation of absorbance at 600 nm with predetermined plate counts. The inoculum was then diluted 2-fold in 14% hog-gastric mucin (Sigma, St. Louis, Mo.) for a final inoculum concentration of 2×10^7 CFU/ml. […] At 0 and 2 hours following infection, tigecycline was administered by the subcutaneous route and compound 21 was administered by the intraperitoneal route.

[6] = system: PAM 1626, Four pumps non-functional; assay: Tigecycline potentiation checkerboard assay, PAM 1626; format: cell-based, P. aeruginosa; settings: Pseudomonas aeruginosa, read-out: Tigecycline MIC in the presence of Compound 21
Experimental: as §1, §2

Klebsiella pneumonia 73 = assay: Antibiotic MIC with fixed concentration of compound 21, Klebsiella pneumonia 73; format: cell-based; settings: tigecycline alone
Experimental: (§4) To further characterize the clinical potential of tigecycline/EPI combinations, the microbiological activity of tigecycline in combination with compound 21 was investigated using clinical isolates of P. aeruginosa and other gram-negative bacteria. In several experiments, described below, the impact of a fixed concentration of compound 21 (2.5 μg/ml) on susceptibility to tigecycline was determined.
(§5) The impact of compound 21 on the activity of tigecycline against representative members of Enterobacteriacaea was also tested.

[7] = system: 110 clinical isolates of P. aeruginosa; assay: Tigecycline susceptibility of P. aeruginosa clinical isolates with fixed concentration of compound 21; format: cell-based; settings: tigecycline alone; 110 clinical isolates
Experimental: as §4
Results from an experiment using 110 clinical isolates of P. aeruginosa are presented in FIG. 1, as the distribution of tigecycline MICs with or without the EPI potentiator.

PAM 1020, wt = assay: Tigecycline potentiation checkerboard assay, PAM 1020; format: cell-based, P. aeruginosa; settings: Pseudomonas aeruginosa, read-out: Tigecycline MIC in the presence of Compound 21
Experimental: as §1, §2

Klebsiella pneumonia 79 = assay: Antibiotic MIC with fixed concentration of compound 21, Klebsiella pneumonia 79; format: cell-based; settings: tigecycline alone
Experimental: as §4, §5

[8] = system: laboratory strains of P. aeruginosa; assay: Tigecycline susceptibility of laboratory strains of P. aeruginosa over-expressing or lacking efflux pumps; format: cell-based; settings: compared to the wild-type strain PAM1020
Experimental: as §1, §2

Enterobacter cloacae 25 = assay: Antibiotic MIC with fixed concentration of compound 21, Enterobacter cloacae 25; format: cell-based; settings: tigecycline alone
[9] = system: Enterobacter aerogenes 19; assay: Antibiotic MIC with fixed concentration of compound 21, Enterobacter aerogenes 19; format: cell-based; settings: tigecycline alone
[10] = system: PAM 2466, mexR1, MexAB-OprM and MexXY-OprM over-expressed; assay: microbe, parasite or virus in culture; format: cell-based, P. aeruginosa; settings: Pseudomonas aeruginosa, read-out: Tigecycline MIC in the presence of Compound 21
Experimental: as §1, §2

[11] = system: PAM 1738, MexCD-OprJ over-expressed, ΔMexAB-OprM ΔMexEF-OprN; assay: microbe, parasite or virus in culture; format: cell-based, P. aeruginosa; settings: Pseudomonas aeruginosa, read-out: Tigecycline MIC in the presence of Compound 21
Experimental: as §1, §2

[12] = system: PAM 1723, MexAB-OprM over-expressed, ΔMexCD-OprJ ΔMexEF-OprN; assay: microbe, parasite or virus in culture; format: cell-based, P. aeruginosa; settings: Pseudomonas aeruginosa, read-out: Tigecycline MIC in the presence of Compound 21
Experimental: as §1, §2

[13] = system: PAM 1323, mexZ, MexXY-OprM over-expressed, MexAB-OprM low level; assay: microbe, parasite or virus in culture; format: cell-based, P. aeruginosa; settings: Pseudomonas aeruginosa, read-out: Tigecycline MIC in the presence of Compound 21
Experimental: as §1, §2

[14] = system: P. aeruginosa strain PAM 1032; assay: Mouse model of P. aeruginosa sepsis infection (tigecycline 50% effective dose); format: in vivo; settings: mice, tigecycline SC at 0 and 2 hours; Reed and Meunch
Experimental: Tigecycline and compound 21 were prepared in sterile 0.9% saline. Seventy Swiss-Webster mice (Harlan laboratories) with body weights ranging from 22 to 25 grams at the start of the study were used. Upon receipt, the animals were housed 5 per cage in a room with a controlled environment and were acclimated to laboratory conditions for at least 24 hours prior to the start of dosing. Animals were provided food and water ad libitum. The health status of the animals was determined during the acclimation period and unhealthy animals were not placed on study. Each animal was identified by marking their tails with indelible ink and each cage was identified by animal, group, and study number.
as §3, with “route. […] The susceptibility of the test strain (P. aeruginosa PAM1032, […] MexAB-OprM) to tigecycline was 4 ug/ml, the susceptibility of the test strain to tigecycline in the presence of 2.5 μg/mL of compound 21 was 0.25 μg/mL.” for “route.”

Citrobacter freundii 13 = assay: Antibiotic MIC with fixed concentration of compound 21, Citrobacter freundii 13; format: cell-based; settings: tigecycline alone
Experimental: as §4, §5

[15] = system: PAM 1753, MexEF-OprN over-expressed; assay: Tigecycline potentiation checkerboard assay, PAM 1753; format: cell-based, P. aeruginosa; settings: Pseudomonas aeruginosa, read-out: Tigecycline MIC in the presence of Compound 21
Experimental: as §1, §2

[16] = system: Strain S41, a clinical isolate; assay: microbe, parasite or virus in culture; format: cell-based, P. aeruginosa

In the case of `NCCC[C@H](N)C(=O)N[C@@H](CCc1ccccc1)C(=O)Nc1cnc2ccccc2c1` [Compound 2, 2-(S),5-Diamino-pentanoic acid [3-phenyl-1-(S)-(quinolin-3-ylcarbamoyl)-propyl]-amide], the “stability in rat serum” value ([1]; in words) is reported as “intermediately stable”, the “compound left in serum after 1.5 hr of incubation” value ([1]; rat serum) is reported as “about half” and the “compound left in serum after 4 hr” value ([1]; rat serum) is reported as “almost all gone”. The “compound left in kidney and liver after the first 40 minutes of incubation” value ([1]; rat tissue homogenates) was “Hardly any was left”, the “stability in kidney and liver” value ([1]; rat tissue homogenates, in words) was “very unstable” and the “Antibiotic (levofloxacin) MIC in the presence of EPI” value (shortened to “Antibiotic (levofloxacin) MIC”) ([2]; EPI 0 μg/ml (levofloxacin alone)) was 2 µg/mL. For the same compound, the “Antibiotic (levofloxacin) MIC” value ([2]; EPI 1.25 μg/ml) was 2 µg/mL, the “Antibiotic (levofloxacin) MIC” value ([2]; EPI 5 μg/ml) was 2 µg/mL and the “Antibiotic (levofloxacin) MIC” value ([2]; EPI 10 μg/ml) was 1 µg/mL. The “Antibiotic (levofloxacin) MIC” value ([2]; EPI 20 μg/ml) was 0.125 µg/mL, the “Antibiotic (levofloxacin) MIC” value ([2]; EPI 40 μg/ml) was 0.06 µg/mL and the “Antibiotic (levofloxacin) MIC” value ([2]; EPI 80 μg/ml) was 0.03 µg/mL. For the same compound, the “Antibiotic (levofloxacin) MIC” value ([2]; EPI […]) was 2 µg/mL, the MPC8 ([2]; EPI concentration necessary to increase susceptibility to levofloxacin eight-fold) was 20 µg/mL and the “serum levels after IV bolus administration” value [3] was “decreased more rapidly”. The “tissue levels at 6 hours after IV injection” value [4] was “below the detectable level”.

For `CN(C)c1cc(NC(=O)CNC(C)(C)C)c(O)c2c1C[C@H]1C[C@H]3[C@H](N(C)C)C(O)=C(C(N)=O)C(=O)[C@@]3(O)C(O)=C1C2=O` [Tigecycline], the “frequency of emergence of efflux-mediated tigecycline resistance” value (Klebsiella pneumonia) is given as ~4×10^−8, the “susceptibility of the test strain to tigecycline” value ([5]; PAM1032, tigecycline alone) is given as 4 µg/mL and the MIC ([5]; Pseudomonas aeruginosa, read-out: Tigecycline MIC in the presence of Compound 21) is given as 0.004 µg/mL. It also gave an MIC [6] of 0.0005 µg/mL, a Tig (MIC) (Klebsiella pneumonia 73) of 2 µg/mL and an MIC50, Tigecycline [7] of 2 µg/mL. For the same compound, the MIC90, Tigecycline [7] was 8 µg/mL, the MIC (PAM 1020, wt) was 0.002 µg/mL and the Tig (MIC) (Klebsiella pneumonia 79) was 4 µg/mL. For the same compound, the “increase in susceptibility to tigecycline on deleting all four efflux pumps (PAM1626)” value [8] was 4 fold, the Tig (MIC) (Enterobacter cloacae 25) was 2 µg/mL and the Tig (MIC) [9] was 4 µg/mL. It also gave an MIC [10] of 0.008 µg/mL, an MIC [11] of 0.001 µg/mL and an MIC [12] of 0.004 µg/mL. The MIC [13] was 0.004 µg/mL, the “50% effective dose of tigecycline alone” value [14] was “greater than 200 mg/kg” and the Tig (MIC) (Citrobacter freundii 13) was 4 µg/mL. The MIC [15] was 0.002 µg/mL, the MIC ([16]; Pseudomonas aeruginosa, read-out: Tigecycline MIC, alone) was 1 µg/mL (≈ 1.71 µM) and the “Mutation Frequency on Tigecycline at 4 μg/ml, alone” value ([16]; strain S41, 4× MIC) was 8.3 × 10^−8.
